Experimental findings from US8273780B2, “Polycyclic antagonists of lysophosphatidic acid receptors” (Amira Pharmaceuticals, Inc., priority 2009, dated 2012) are described below.

Holding throughout (type): in vivo
One assay has as its system C57B1/6 mice. Kind of assay: Bleomycin-induced lung fibrosis model in mice. The following applies: for total lung collagen: chronic setting (14 day bleomycin model). An excerpt: Female C57B1/6 mice (Harlan, 25-30 g) are housed 4 per cage, given free access to food and water and allowed to acclimate for at least 7 days prior to test initiation. After the habituation phase, mice are lightly anesthetized with isoflurane (5% in 100% O2) and administered with bleomycin sulfate (0.01-5 U/kg, Henry Schein) via intratracheal instillation (Cuzzocrea S et al. Am J Physiol Lung Cell Mol Physiol. 2007 May; 292(5):L1095-104. Epub 2007 Jan. 12.). Mice are returned to their cages and monitored daily for the duration of the experiment. Test compound or vehicle is delivered po, ip or sc daily. The route and frequency of dosing is based on previously determined pharmacokinetic properties. All animals are sacrificed using inhaled isoflurane 3, 7, 14, 21 or 28 days after bleomycin instillation. Following sacrifice, mice are intubated with a 20 gauge angiocatheter attached to a 1 ml syringe. Lungs are lavaged with saline to obtain bronchoalveolar lavage fluid (BALF) and then removed and fixed in 10% neutral buffered formalin for subsequent histopathological analysis. BALF is centrifuged for 10 min at 800×g to pellet the cells and the cell supernatant removed and frozen at −80° C. for subsequent protein analysis using the DC protein assay kit (Biorad, Hercules, Calif.) and soluble collagen analysis using Sircol (Biocolor Ltd, UK). BALF is analyzed for concentrations of inflammatory, pro-fibrotic and tissue injury biomarkers including transforming growth factor β1, hyaluronic acid, tissue inhibitor of metalloproteinase-1, matrix matelloproteinase-7, connective tissue growth factor and lactate dehydrogenase activity, using commercially available ELISA. The cell pellet is re-suspended in PBS. Total cell counts are then obtained using a Hemavet hematology system (Drew Scientific, Wayne, Pa.) and differential cells counts are determined using Shandon cytospin (Thermo Scientific, Waltham, Mass.). Lung tissue is stained using hematoxylin and eosin (H&E) and trichrome and lung fibrosis is determined by semiquantitative histopathological scoring (Ashcroft T. et al. J. Clin. Path. 1988; 41; 4, 467-470) using light microscopy (10× magnification) and quantitative, computer-assisted densitometry of collagen in lung tissue sections using light microscopy. The data are plotted using Graphpad prism and statistical differences between groups determined.

In assay [1] the test system is C57BL/6 mice. As to the kind of experiment: Mouse carbon tetrachloride (CCl4)-induced liver fibrosis model. The following applies: compared to the untreated group. The method, then: Female C57BL/6 mice (Harlan, 20-25 g) housed 4/cage are given free access to food and water and allowed to acclimate for at least 7 days prior to test initiation. After the habituation phase, mice receive CCl4 (1.0 ml/kg body weight) diluted in corn oil vehicle (100 μL volume) via i.p. injection twice a week for 8 weeks. (Higazi, A. A. et al., Clin Exp Immunol. 2008 April; 152(1):163-73. Epub 2008 Feb. 14.). Control mice receive an equivalent volume of corn oil vehicle only. Test compound or vehicle is delivered po, ip or sc daily. […] Liver tissue homogenates are analyzed for collagen levels using Sircol (Biocolor Ltd, UK). Fixed Liver tissue is stained using hematoxylin and eosin (H&E) and trichrome and liver fibrosis is determined by quantitative, computer-assisted densitometry of collagen in liver tissue sections using light microscopy. Plasma and liver tissue lysates are also analyzed for concentrations of inflammatory, pro-fibrotic and tissue injury biomarkers including transforming growth factor β1, hyaluronic acid, tissue inhibitor of metalloproteinase-1, matrix matelloproteinase-7, connective tissue growth factor and lactate dehydrogenase activity, using commercially available ELISA. The resulting data are plotted using Graphpad prism and statistical differences between groups determined.

The subject of assay [2] is C57BL/6 mice. As to the kind of experiment: Mouse unilateral ureteral obstruction kidney fibrosis model. The following applies: compared to untreated group. The protocol:
Female C57BL/6 mice (Harlan, 20-25 g) housed 4/cage will be given free access to food and water and allowed to acclimate for at least 7 days prior to test initiation. After the habituation phase, mice undergo unilateral ureteral obstruction (UUO) surgery or sham to left kidney. Briefly, a longitudinal, upper left incision is performed to expose the left kidney. The renal artery is located and 6/0 silk thread is passed between the artery and the ureter. The thread is looped around the ureter and knotted 3 times insuring full ligation of ureter. The kidney is returned to abdomen, the abdominal muscle is sutured and the skin is stapled closed. Mice are returned to their cages and monitored daily for the duration of the experiment. Test compound or vehicle is delivered po, ip or sc daily. The route and frequency of dosing is based on previously determined pharmacokinetic properties. All animals are sacrificed using inhaled isoflurane 4, 8 or 14 days after UUO surgery. Following sacrifice blood is drawn via cardiac puncture, the kidneys are harvested and one half of the kidney is frozen at −80° C. and the other half is fixed in 10% neutral buffered formalin for histological assessment of kidney fibrosis using light microscopy (10× magnification). Kidney tissue homogenates are analyzed for collagen levels using Sircol (Biocolor Ltd, UK). Fixed kidney tissue is also stained using hematoxylin and eosin (H&E) and trichrome and kidney fibrosis is determined by quantitative, computer-assisted densitometry of collagen in […] tissue sections using light microscopy and collagen content in kidney lysate. Plasma and kidney tissue lysates are also analyzed for concentrations of inflammatory, pro-fibrotic and tissue injury biomarkers including transforming growth factor β1, hyaluronic acid, tissue inhibitor of metalloproteinase-1, and plasminogen activator inhibitor-1, using commercially available ELISA. The resulting data are plotted using Graphpad prism and statistical differences between groups determined.

With `Cc1noc(-c2ccc(-c3ccc(C4(C(=O)O)CC4)cc3)cc2)c1NC(=O)O[C@H](C)c1ccccc1` [Compound 1, 1-{4′-[3-Methyl-4-((R)-1-phenyl-ethoxycarbonylamino)-isoxazol-5-yl]-biphenyl-4-yl}-cyclopropanecarboxylic acid], in the assay with C57B1/6 mice (7-day bleomycin model), the “BALF MMP-7” value is given as “reduced”, the “BALF TGFβ1” value is “reduced”, the BALF collagen entry is reported as “reduced” and the BALF hyaluronan entry is “reduced”. Also, in the assay with C57B1/6 mice (7-day bleomycin model), the “BALF inflammatory cell influx” value is reported as “reduced” and the BALF protein result was “reduced”. For the same molecule, in the assay on C57B1/6 mice (acute setting (3 day)), the “collagen concentration in BALF” value is recorded as “significantly reduced” and the “total protein concentration in BALF” value is reported as “significantly reduced”. Besides, the total lung collagen entry in the assay on C57B1/6 mice (dosed prophylactically (day 0-day 14)) is “decreased”. In the assay with C57B1/6 mice (dosed therapeutically (day 3-day 14)), the total lung collagen entry is reported as “decreased”. In the assay on C57BL/6 mice [1], the “collagen deposition in the liver” value is “significantly reduced” and the liver weight increase result is listed as “significantly reduced”. Moreover, in the assay with C57BL/6 mice [2], the hyaluronic acid result is “reduced”, the “plasminogen activator inhibitor-1” value is listed as “reduced”, the “tissue inhibitor of metalloproteinase-1” value is given as “reduced” and the total kidney collogen result was “reduced”. In addition, the “transforming growth factor β1” value in the assay on C57BL/6 mice [2] is listed as “reduced”. For the same molecule, in the assay with C57BL/6 mice [2] (kidney), the “collagen Type 1” value is “reduced”.
